Structures are written as SMILES. “And” between values parts separate entries of the source, which are not always exact repeats. Equal entries are not always repeated.

From article PMC3062105 (Clinical infectious diseases : an official publication of …, 2011) come the findings set out here.

In this assay the test system is influenza viruses. Set-up: species or system human (pediatric influenza patients). The settings on record: human, in vivo.

Take `CCOC(=O)C1=C[C@@H](OC(CC)CC)[C@H](NC(C)=O)[C@@H](N)C1` [oseltamivir]: the “Virus isolation rate from specimens” value is 68% and 69%.

Regarding `CC(=O)N[C@H]1[C@H]([C@H](O)[C@H](O)CO)OC(C(=O)O)=C[C@@H]1N=C(N)N` [zanamivir], the “Virus isolation rate from specimens” value is 50% and 39%.
